Measurements taken from patent US6452005B1, “JAK-3 inhibitors for treating allergic disorders” (Parker Hughes Institute, priority 1999, dated 2002).
Read-outs that look alike come from different tables or passages of the source.

How the values were obtained:
[1] = tested on: JAK3-dependent STAT activation; assay: EMSA, IL-2 triggered STAT activation in 32Dc11/IL2Rβ cells; format: cell-based
Procedure: Electrophoretic Mobility Shift Assays (EMSAs). EMSAs were performed to examine the effects of dimethoxyquinazoline compounds on cytokine-induced STAT activation (Goodman et. al., 1998). […] Cells were collected after 15 minutes and resuspended in lysis buffer (100 mM Tris-HCl pH 8.0, 0.5% NP-40, 10% glycerol, […], 0.1 mM NaVO3, 50 mM NaF, 150 mM NaCl, 1 mM DTT, 3 μg/ml Aprotinin, 2 μg/ml Pepstatin A, 1 μg/ml Leupeptin and 0.2 mM PMSF). Lysates were precleared by centrifugation for 30 min. Cell extracts (approximately 10 μg) were incubated with 2 μg of poly(dI-dC) for 30 minutes, followed by a 30 minutes incubation with 1ng of poly. nucleotide kinase-^32P labeled double stranded DNA oligonucleotide representing the IRF-1 STAT DNA binding sequence (Santa Cruz Biotechnology, Santa Cruz, Calif.). Samples were resolved by non-denaturing PAGE and visualized by autoradiography.

[2] = biological target: T1, SYK (Homo sapiens, UniProt P43405); assay: Immune complex kinase assay, SYK from Sf21 cells; format: biochemical; details: concentrations as high as 350 μM
T1 construct: made in house; host or cells: Sf21 insect cells, baculovirus
Excerpt: Immune Complex Kinase Assays.

[3] = Pharmacokinetic studies in mice; format: in vivo; details: for Cmax: 12.5 mg/kg bolus, read-out: estimated maximum plasma concentration (Cmax)
Procedure: FIGS. 13A and 13B are graphs showing pharmacokinetic features of the JAK3 inhibitor WHI-P131 in mice. Plasma concentration-time profiles of WHI-P131 in mice following intravenous [13A] or intraperitoneal [13B] administration (12.5 mg/kg; 5 mice per group). The pharmacokinetic parameters, including the central volume of distribution (Vc), estimated maximum plasma concentration (Cmax), elimination half-life (t½β), systemic exposure level/area under plasma concentration-time curve (AUC), and bioavailability (F), are shown in the insets.
Pharmacokinetic Studies: In pharmacokinetic studies, mice were injected either intravenously (i.v.) via the tail vein or intraperitoneally (i.p.) with a bolus dose of 300 μg/mouse (12.5 mg/kg =34 μmols/kg) of WHI-P131. Blood samples were obtained from the ocular venous plexus by retroorbital venupuncture prior to and at 3 minutes, 5 minutes, 10 minutes, 15 minutes, 30 minutes, 45 minutes and 1 hour, 2 hours, 4 hours and 8 hours a administration of WHI-P131. All collected blood samples were heparinized and centrifuged at 7,000×g for 10 minutes in a microcentrifuge to obtain plasma. The plasma samples were stored at −20° C. until analysis. Aliquots of plasma were used for extraction and HPLC analysis. Pharmacokinetic modeling and pharmacokinetic parameter calculations were carried out using the pharmacokinetics software, WinNonline Program, Version 1.1. (Scientific Consulting Inc., Cary, N.C.). Concentration data were weighted by 1/concentration. An appropriate pharmacokinetic model was chosen on the basis of lowest weighted squared residuals, lowest Schwartz criterion (SC), lowest Akaike's Information Criterion (AIC) value, lowest standard errors of the fitted parameters, and dispersion of the residuals. The elimination half-life was estimated by linear regression analysis of the terminal phase of the plasma concentration profile. The area under the concentration time curve (AUC) was calculated by the trapezoidal rule between first (0 h) and last sampling time plus C/k, where C is the concentration of last sampling and k is the elimination rate constant. Systemic clearance (CL) was determined by dividing the dose by the AUC. The apparent volume of distribution at steady-state was calculated using the following equation, Vss=Dose·AUMC/(AUC)^2 Bioavailability (F) was estimated using the equation F(%)=AUCip×Doseiv/AUCiv×Doseip.
In brief, the HPLC system consisted of a Hewlett Packard (HP) series 1100 equipped with an automated electronic degasser, a quaternary pump, an autosampler, an automatic thermostatic column compartment, diode array detector and a computer with a Chemstation software program for data analysis. A 250×4 mm Lichrospher 100, RP-18 (5 μm) analytical column and a 4×4 mm Lichrospher 100, RP-18 (5 μm) guard column were obtained from Hewlett Packard Inc. (San Fernando, Calif.). Acetonitrile/water containing 0.1% of trifluoroacetic acid (TFA) and 0.1% triethylamine (TEA) (28:72, v/v) was used as the mobile phase. The wavelength of detection was set at 340 nm. Peak width, response time and slit were set at >0.03 minutes, 0.5 seconds and 8 nm, respectively. […] For extraction, 7 ml chloroform was then added to the plasma sample, and the mixture was vortexed thoroughly for 3 minutes. Following centrifugation (300×g, 5 minutes), the aqueous layer was frozen using acetone/dry ice and the organic phase was transferred into a clean test tube. The chloroform extracts were dried under a slow steady stream of nitrogen. The residue was reconstituted in 100 μL of methanol: water (9:1) and 50 μL aliquot of this solution was used for HPLC analysis.

[4] = tested on: BALB/c mice; assay: Passive cutaneous anaphylaxis model; format: in vivo; details: 25 mg/kg i.p. dose level
Procedure: FIG. 14A is a graph showing the effects of WHI-P131 on anaphylaxis-associated vascular hyperpermeability, examined by evaluating the cutaneous extravasation of albumin-bound Evans blue dye in mice (n=12). The plasma exudation indices were determined for vehicle treated as well as WHI-P131 treated mice, as described in the Examples. To study the effect of WHI-P131 on anaphylaxis, IgE sensitized mice were injected with two consecutive doses of 10 or 25 mg/kg WHI-P131 at 90 minutes before and 30 minutes before the antigen challenge, respectively. Mice were then challenged with 100 μg DNP-BSA in 2% Evans blue dye and the plasma exudation indices were determined. […] The data are expressed as plasma exudation index (times increase in optical density over PBS treated ears. The mean OD (at 620 nm) of vehicle treated ears was 0.22±0.04 before and 0.918±0.05 after the IgE/antigen challenge. *p<0.05 compared to vehicle treated controls.
After 20 hours, mice were treated with WHI-P131 (10 or 25 mg/kg i.p.) twice at 1 hour intervals prior to the antigen challenge. […] For quantitation of Evans blue dye extravasation as a measure of anaphylaxis-associated vascular hyperpermeability, 8 mm skin specimens were removed from the ears of mice, minced in 2 ml formamide and incubated at 80° C. for 2 hours in water bath to extract the dye. The absorbance was read at 620 nm. […]

COc1cc2ncnc(Nc3ccc(O)cc3)c2cc1OC [WHI-P131, 4-(4′-Hydroxylphenyl)-amino-6,7-dimethoxyquinazoline]
JAK3-dependent STAT activation after stimulation with IL-2 ([1]; 10 μg/ml, 32Dc11/IL2Rβ cells): inhibited
IL-2 triggered JAK-3-dependent STAT activation ([1]; 100 μg/ml in FIG. 6E legend): inhibited
effect on enzymatic activity of SYK [2]: did not affect
absorption half-life ([3]; i.p., 12.5 mg/kg): 6 min
estimated bioavailability ([3]; i.p., 12.5 mg/kg): 94.4%
time to reach maximum plasma concentration ([3]; i.p., 12.5 mg/kg): 0.17 h
β-half-life ([3]; i.p., 12.5 mg/kg): 1.9 h
Cmax ([3]; i.p.): 57.7 µM
β-half-life ([3]; i.v., 12.5 mg/kg): 2.1 h
Cmax ([3]; i.v.): 85.6 µM
inhibition of IgE/antigen induced plasma exudation (Evans blue extravasation) [4]: 70%
